Measurements from US5583101A, “Use of nitrogen oxide species and adducts to inhibit skeletal muscle contraction” (Harvard College, priority 1994, dated 1996).

Legend:
[1] = tested on: rat diaphragm fiber bundles; assay: Force-frequency relationship (isometric force) of isolated diaphragm fiber bundles; format: cell-based; settings: for contractile increases (force-frequency relationship): same dose range as NIZ (100 uM-1 mM)
Protocol: FIGS. 3A and 3B. Skeletal muscle contractile properties are related to NOS activity Muscles (Soleus, n=6; DPH, diaphragm fiber bundles, n=7; EDL, extensor digitorum longus, n=5) were surgically isolated from deeply anesthetized rats, mounted in vitro at optimal length, and incubated at 37° C. in oxygenated buffered Krebs-Ringer solution containing d-tubocurarine 25 uM. Direct field stimulation (0.2 ms pulses, 250 ms train duration, supramaximal voltage) was used to evoke twitch (1 Hz) and tetanic (15, 30, 40, 50, 80, 120, 200 Hz) contractions. Isometric force was measured. Upper panel (A) depicts the average forces (+/-SE) developed at frequencies of 1-200 Hz. Tetanic stimulation at any submaximal frequency (15-150 Hz) evoked different amounts of force production among the muscles (Soleus>DPH>EDL). A vertical dotted line identifies the frequency (40 Hz) used in comparisons of NOS activity.
(§1) FIGS. 4A and 4B. Endogenous NO depresses contractile function. Fiber bundles were isolated from rat diaphragm and studied using methods described in FIG. 3. Panel A depicts the average forces (+SE) developed at stimulus frequencies of 1-120 Hz by muscles incubated in Krebs-Ringer solution containing either 7-nitroindazole (NIZ; n=3 per frequency) or aminoguanidine (AMG, n=3 per frequency). Forces are expressed as percentages of maximal tetanic force (PO).

other NOS isoforms = settings: Misko et al. 1993; cited from earlier work
[2] = tested on: rat diaphragm fiber bundles; assay: Force developed at 40 Hz (submaximal tetanic contraction) by diaphragm fiber bundles; format: cell-based
Protocol: FIGS. 3A and 3B. […] Direct field stimulation (0.2 ms pulses, 250 ms train duration, supramaximal voltage) was used to evoke twitch (1 Hz) and tetanic (15, 30, 40, 50, 80, 120, 200 Hz) contractions. Isometric force was measured. Upper panel (A) depicts the average forces (+/-SE) developed at frequencies of 1-200 Hz. […] A vertical dotted line identifies the frequency (40 Hz) used in comparisons of NOS activity.
as §1, with “Endogenous NO depresses contractile function.” left out
Fiber bundles were isolated from rat diaphragm and studied using methods described in the description of FIG. 3. Data are mean forces (±SE) developed at 40 Hz by fiber bundles (n=5 or 6/group) treated with NLA (transcribed from FIG. 4B), NLA plus dipyramidole (DPM; phosphodiesterase inhibitor) 10 uM, 8-bromo-cGMP (BGMP; exogenous CGMP analogue), or DPM plus BGMP. Forces are expressed as percentages of the average force developed at 40 Hz by time- and stimulus-matched control muscle (shown±SE by horizontal dashed lines).

b-NOS = settings: Moore et al.; cited from earlier work

## N=C(N)NN [AMG, aminoguanidine]
[1]
  contractile increases (force-frequency relationship): Similar, albeit smaller, contractile increases
Other NOS isoforms
  NOS isoform selectivity: relative selectivity towards other NOS isoforms

## Nc1nc2c(nc(Br)n2[C@@H]2O[C@@H]3COP(=O)(O)O[C@H]3[C@H]2O)c(=O)[nH]1 [BGMP, 8-bromo-cGMP]
[2]; 40 Hz, FIG. 5
  effect on contractile increases caused by NOS inhibition: reversed
[2]; NLA-treated bundles, DPM 10 uM, FIG. 5, p<0.0001
  force developed at 40 Hz, compared with control: greater than control

## OCCN(CCO)c1nc(N2CCCCC2)c2nc(N(CCO)CCO)nc(N3CCCCC3)c2n1 [DPM, dipyridamole]
[2]; 40 Hz, FIG. 5
  effect on contractile increases caused by NOS inhibition: reversed

## N=C(N)NCCC[C@H](N)C(=O)O [L-arginine]
[1]
  contractile increases (force-frequency relationship): not

## O=[N+]([O-])c1cccc2cn[nH]c12 [NIZ, 7-nitroindazole]
b-NOS
  NOS isoform specificity: b-NOS specific inhibitor
[1]; 100 uM, p<0.05
  effect on contractile function (force-frequency relationship): Significant effects
[1]; 1 mM, FIG. 4A
  effect on contractile function (force-frequency curve): profoundly influenced contractile function, causing the diaphragm force-frequency curve to closely approximate that of the soleus
[1]; 1 mM, FIG. 4A, repeated measures ANOVA
  shift of the diaphragm force-frequency relationship: shifted the diaphragm force-frequency relationship up and to the left (p<0.0001 by repeated measures ANOVA) such that it was indistinguishable from the relationship measured in untreated soleus

## CC(=O)N[C@@H](CSN=O)C(=O)O [SNAC, S-nitroso-N-acetylcysteine]
[2]; 100 uM, FIG. 4B
  contractile function with exogenous NO donor: depressing contractile function
[2]; 40 Hz, SNAC 100 uM, NP 100 uM, NLA 10 mM, FIG. 4B
  force developed at 40 Hz, compared with control: not different from control

## CN(C)c1ccc2nc3ccc(=[N+](C)C)cc-3sc2c1 [methylene blue]
[2]; 10 uM, p<0.001, data not shown
  force production during submaximal tetanic contraction: increased force production

## Hemoglobin
[2]; 40 Hz, 50 uM, n=5, p=0.052
  force production during submaximal tetanic contraction: enhances force production
[2]; 40 Hz, 50-250 uM, n=10, p<0.001
  force production during submaximal tetanic contraction: enhances force production
